Assays:
[1] = tested on: HCT116 (colorectal carcinoma); experiment: Antiproliferative activity, sulforhodamine B (SRB) assay; type: cell-based, human; conditions: after treatment with 70 μM, 72 h
Method: (§1) The antiproliferative activity of selected Cu(II) ATCUN complexes was investigated towards different tumor cell lines (HCT116, NCI-H460, SiHa and SW480 cells) and expressed as the IC50 values.
(§2) Table S13. Accumulation of Cu in HCT116 cells after 24 h incubation with Cu-GGH, 1, 3, 4 and CuCl2 (70 µM) as determined by ICP-MS (n = 3), and cytotoxic activity in human cancer cell lines HCT116, NCI-H460, SiHa and SW480 expressed as the IC50 ± SD (in µM) as well as by the residual viable cells after treatment with 70 μM of the respective compound (%) as determined by the SRB assay (exposure time 72 h). accumulated Cu IC50 values […]
(§3) a – indicates no antiproliferative activity observed after treatment with the respective compound at 70 μM for 72 h.
(§4) S-12.1 Determination of IC50 values against HCT116, NCI-H460, SiHa and SW480 […]
(§5) HCT116, SW480 and NCI-H460 cells were supplied by ATCC, while SiHa cells were supplied by Dr. David Cowan, of the Ontario Cancer Institute, Canada. The cells were grown in α-MEM (Life Technologies) supplemented with 5% fetal calf serum (Moregate Biotech) at 37 °C in a humidified incubator with 5% CO2. […]
(§6) in 96-well plates and left to settle for 24 h. Compounds were added as water solutions to the plates in a series of 3-fold dilutions for 72 h before the assay was terminated by addition of 10% trichloroacetic acid (Merck Millipore) at 4 °C for 1 h. Cells were stained […]
(§7) with 0.4% sulforhodamine B (Sigma-Aldrich) in 1% acetic acid for 30 min in the dark at room temperature and then washed with 1% acetic acid to remove unbound dye. The stain was dissolved in unbuffered Tris base (10 mM, Serva) for 30 min on a plate shaker in the dark and quantified on a BioTek EL808 microplate reader at an absorbance of 490 nm with a reference wavelength of 450 nm to determine the percentage of cell-growth inhibition by determining the absorbance of each sample relative to a negative (no inhibitor) and a no-growth control (day 0). IC50 values were calculated with SigmaPlot 12.5 (Systat Software Inc.) using a three-parameter logistic sigmoidal dose−response curve between the calculated growth inhibition and the compound concentration. The presented IC50 values are the mean of at least three independent experiments, where 10 concentrations were tested in duplicate for each compound.
(§8) Ventures), by diluting with a matrix-matched solution with regard to HNO3 and Tm concentration, producing calibration standards with concentrations of 0.5, 1, 3, 5, 7, 10, […]
(§9) The measured Cu concentrations in the cell accumulation samples were in the range of 27–82 μg/L. The reported values are the means of at least three independent accumulation experiments conducted in triplicates with blank wells for each substance to account for unspecific binding of the Cu(II) complexes to the plastic of the well plates.
(§10) Accumulation values have been corrected by subtracting the average amount Cu determined in the cell-free wells.
(§11) Calibration curves for Cu were prepared with concentrations ranging from 0.5–100 µg/L. The limit of detection (LOD) was defined as 3 times the random error in the y-direction (Sy/x) of the calibration curve divided by the slope of the calibration curve. The limit of quantification (LOQ) was defined as 10 times the random error in the y-direction (Sy/x) of the calibration curve divided by the slope of the calibration curve.42 The LOD was determined for Cu as 1.8 μg/L and the LOQ was 5.95 μg/L.

[2] = tested on: NCI-H460 (non-small cell lung carcinoma); experiment: as above; type: cell-based, human; conditions: after treatment with 70 μM, 72 h
Method: as §1, §2, §3, §4, §5, §6, §7, §8, §9, §10, §11

[3] = tested on: SW480 (colon adenocarcinoma); experiment: as above; type: cell-based, human; conditions: after treatment with 70 μM, 72 h
Method: as §1, §2, §3, §4, §5, §6, §7, §8, §9, §10, §11

[4] = tested on: SiHa (cervical carcinoma); experiment: as above; type: cell-based, human; conditions: after treatment with 70 μM, 72 h
Method: as §1, §2, §3, §4, §5, §6, §7, §8, §9, §10, §11

HCT116 cells = experiment: Cellular uptake of Cu by ICP-MS; type: cell-based, human; conditions: HCT116, 70 μM, 24 h
Method: We aimed to correlate the antiproliferative activity to the accumulation of Cu in HCT116 cells. Therefore, cells were treated for 24 h with complexes Cu−GGH, 1, 3, 4 and CuCl2 (70 μM), and the Cu content of the samples was determined by ICP‐MS (Table S13). […] The higher Cu contents probably lead to enhanced oxidative stress levels in cells, which consequently results in higher antiproliferative activity.
The antiproliferative activity of selected Cu(II) ATCUN complexes was investigated towards different tumor cell lines (HCT116, NCI-H460, SiHa and SW480 cells) and expressed as the IC50 values. Additionally, cellular uptake studies in HCT116 tumor cells were carried out and the amount of Cu was determined with inductively coupled plasma mass spectrometry (ICP-MS).
Table S13. […]
with 0.4% sulforhodamine B (Sigma-Aldrich) in 1% acetic acid for 30 min in the dark at room temperature and then washed with 1% acetic acid to remove unbound dye. The stain was dissolved in unbuffered Tris base (10 mM, Serva) for 30 min on a plate shaker in the dark and quantified on a BioTek EL808 microplate reader at an absorbance of 490 nm with a reference wavelength of 450 nm to determine the percentage of cell-growth inhibition by determining the absorbance of each sample relative to a negative (no inhibitor) and a no-growth control (day 0). […]

plasmid DNA pBR322 = conditions: 50 μM complex (Cu(II):peptide 1:1.25), pBR322 0.2 μg, MOPS 50 mM pH 7.4, ascH− 1 mM, 1 h, 37 °C; at least three experiments
Method: The influence of Gly2 and β‐Ala2 in the ATCUN motif of complexes 1–7 on the oxidative plasmid DNA cleavage activity was tested by means of gel electrophoresis. […] In Figure 3 the nuclease activity of in situ prepared 1–7, Cu−GGH and CuCl2 in the presence of ascH^− as reducing agent is shown (pH 7.4, 37 °C).
Figure 3 (Top) Nuclease activity towards plasmid DNA pBR322 (0.2 μg) of Cu(II) ATCUN complexes Cu−GGH, 1–7 (50 μM) and CuCl2 in MOPS buffer (50 mM, pH 7.4) in the presence of ascH^− (1 mM) after incubation for 1 h at 37 °C. Lane 1: DNA ladder (form I, II and III), lane 2: DNA reference, lanes 3–10 as indicated, lane 11: CuCl2. (Bottom) Visualization of the extent of DNA cleavage in percent. Error bars represent the standard deviation from at least three experiments.
A suitable concentration at which DNA forms II and III are visible, was determined to be 35 μM through a concentration‐dependent DNA cleavage experiment (S‐6.2, 0–50 μM).
All DNA cleavage experiments were
performed at least in triplicate in order to ensure reproducibility. The standard deviations
are represented as the error bars.
The in situ prepared complexes 1–7 (50 µM CuCl2 / 62.5 µM ligand, Cu(II):peptide = 1:1.25,
see S-4) and their corresponding ligands a–g (62.5 µM) were incubated with plasmid DNA […]
(form II), and linear (Form III) DNA were visualized by fluorescence imaging of […]

[5] = pH 7.4, competitivity index (CI) method; cited from earlier work
Method: Table 1 CI values calculated at pH 7.4 for Cu(II) complexes 1–7 of peptides a–g (1 mM Cu(II), peptides L and virtual competitive ligand Z) based on respective stability constants. […] The high stability of Cu−GGH (CI7.4=12.4)[14] and the novel Cu(II) Gly2−ATCUN complexes 1 and 2 (CI7.4 13.61 and […], Table 1) by formation of 5,5,6‐chelates is assumed to be res ...

[6] = tested on: Ehrlich ascites tumor cells; conditions: cited from earlier work
From the text: Cowan et al. reported Cu(II) ATCUN complexes with anticancer, ‐viral, and ‐microbial activity as well as for DNA cleavage and enzyme inhibition.[3, 16, 17]

NH2−Gly−Gly−His−COOH [Cu−GGH, reference compound]
residual viable cells HCT116 [1]: 66 ± 21% | residual viable cells NCI-H460 [2]: 74 ± 9% | residual viable cells SW480 [3]: 73 ± 17% | residual viable cells SiHa [4]: – (indicates no antiproliferative activity observed after treatment with the respective compound at 70 μM for 72 h) | cellular uptake (accumulated Cu content), approximate values (HCT116 cells): ~0.3 μg Cu/4×10^5 cells | extent of DNA cleavage, form II (plasmid DNA pBR322): ~90% | log K 7.4 / CI7.4 of Cu(II) complex [5]: 12.4 | antitumor effect in vivo (in words) [6]: killed Ehrlich ascites tumor cells in vivo

Source: paper PMC9299640, “Incorporation of β‐Alanine in Cu(II) ATCUN Peptide Complexes Increases ROS Levels, DNA Cleavage and Antiproliferative Activity” (Chemistry (Weinheim an Der Bergstrasse, Germany), 2021)
